# ChEMBL document CHEMBL1201862, “PubChem BioAssay data set” (2004)
#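 Grown in 96-well plates, cells were treated for 48 hours with each compound at five concentrations. Insufficient inhibition: endpoint recorded as highest concentration tested. The concentration for 50% growth inhibition is given as GI50.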 Active and inactive are the calls of the source. Cut-off read from the data, not from the text of the source: active = GI50 up to about 1.1 µM and inactive = higher.
# What was measured:
# Test in all cases: inhibition of tumour cell growth, NCI panel, 48 h
# 786-0 = tested on: 786-0
# A498 = tested on: A498
# A549 = tested on: A549
# ACHN = tested on: ACHN
# CAKI-1 = tested on: CAKI-1
# CCRF-CEM = tested on: CCRF-CEM
# COLO 205 = tested on: COLO 205
# DLD-1 = tested on: DLD-1
# DMS-114 = tested on: DMS-114
# DMS-273 = tested on: DMS-273
# EKVX = tested on: EKVX
# HCT-116 = tested on: HCT-116
# HCT-15 = tested on: HCT-15
# HL-60 = tested on: HL-60
# HOP-18 = tested on: HOP-18
# HOP-62 = tested on: HOP-62
# HOP-92 = tested on: HOP-92
# HT-29 = tested on: HT-29
# IGROV-1 = tested on: IGROV-1
# K562 = tested on: K562
# KM-20L2 = tested on: KM-20L2
# KM12 = tested on: KM12
# LOX IMVI = tested on: LOX IMVI
# LXFL 529 = tested on: LXFL 529
# M14 = tested on: M14
# MOLT-4 = tested on: MOLT-4
# Malme-3M = tested on: Malme-3M
# NCI-H23 = tested on: NCI-H23
# NCI-H460 = tested on: NCI-H460
# NCI-H522 = tested on: NCI-H522
# OVCAR-3 = tested on: OVCAR-3
# OVCAR-4 = tested on: OVCAR-4
# OVCAR-5 = tested on: OVCAR-5
# OVCAR-8 = tested on: OVCAR-8
# RPMI-8226 = tested on: RPMI-8226
# RXF 393 = tested on: RXF 393
# SF-268 = tested on: SF-268
# SF-295 = tested on: SF-295
# SF-539 = tested on: SF-539
# SK-MEL-28 = tested on: SK-MEL-28
# SK-MEL-2 = tested on: SK-MEL-2
# SK-MEL-5 = tested on: SK-MEL-5
# SK-OV-3 = tested on: SK-OV-3
# SN12C = tested on: SN12C
# SNB-19 = tested on: SNB-19
# SNB-75 = tested on: SNB-75
# SNB-78 = tested on: SNB-78
# TK-10 = tested on: TK-10
# U-251 = tested on: U-251
# UACC-257 = tested on: UACC-257
# UACC-62 = tested on: UACC-62
# UO-31 = tested on: UO-31
# HCC 2998 = tested on: HCC 2998
# M19-MEL = tested on: M19-MEL
# NCI-H226 = tested on: NCI-H226
# SR = tested on: SR
# SW-620 = tested on: SW-620
compound,measurement,setting,value
C/C(=C(/C)c1cc[n+](C)cc1)c1cc[n+](C)cc1,GI50,786-0,> 75 µM (inactive)
same,GI50,A498,> 75 µM (inactive)
same,GI50,A549,> 75 µM (inactive)
same,GI50,ACHN,> 75 µM (inactive)
same,GI50,CAKI-1,> 75 µM (inactive)
same,GI50,CCRF-CEM,> 75 µM (inactive)
same,GI50,COLO 205,27.2 µM (inactive)
same,GI50,DLD-1,39.9 µM (inactive)
same,GI50,DMS-114,16.2 µM (inactive)
same,GI50,DMS-273,36.1 µM (inactive)
same,GI50,EKVX,> 75 µM (inactive)
same,GI50,HCT-116,> 75 µM (inactive)
same,GI50,HCT-15,52.7 µM
same,GI50,HL-60,> 75 µM (inactive)
same,GI50,HOP-18,> 75 µM (inactive)
same,GI50,HOP-62,> 75 µM (inactive)
same,GI50,HOP-92,> 75 µM (inactive)
same,GI50,HT-29,> 75 µM (inactive)
same,GI50,IGROV-1,34.4 µM (inactive)
same,GI50,K562,54.8 µM (inactive)
same,GI50,KM-20L2,> 75 µM (inactive)
same,GI50,KM12,> 75 µM (inactive)
same,GI50,LOX IMVI,43.6 µM (inactive)
same,GI50,LXFL 529,69.8 µM (inactive)
same,GI50,M14,> 75 µM (inactive)
same,GI50,MOLT-4,> 75 µM (inactive)
same,GI50,Malme-3M,> 75 µM (inactive)
same,GI50,NCI-H23,> 75 µM (inactive)
same,GI50,NCI-H460,> 75 µM (inactive)
same,GI50,NCI-H522,18.8 µM (inactive)
same,GI50,OVCAR-3,9.12 µM (inactive)
same,GI50,OVCAR-4,69.8 µM (inactive)
same,GI50,OVCAR-5,> 75 µM (inactive)
same,GI50,OVCAR-8,> 75 µM (inactive)
same,GI50,RPMI-8226,28 µM (inactive)
same,GI50,RXF 393,> 75 µM (inactive)
same,GI50,SF-268,> 75 µM (inactive)
same,GI50,SF-295,> 75 µM (inactive)
same,GI50,SF-539,> 75 µM (inactive)
same,GI50,SK-MEL-28,> 75 µM (inactive)
same,GI50,SK-MEL-2,> 75 µM (inactive)
same,GI50,SK-MEL-5,> 75 µM (inactive)
same,GI50,SK-OV-3,> 75 µM (inactive)
same,GI50,SN12C,> 75 µM (inactive)
same,GI50,SNB-19,> 75 µM (inactive)
same,GI50,SNB-75,> 75 µM (inactive)
same,GI50,SNB-78,> 75 µM (inactive)
same,GI50,TK-10,> 75 µM (inactive)
same,GI50,U-251,> 75 µM (inactive)
same,GI50,UACC-257,> 75 µM (inactive)
same,GI50,UACC-62,> 75 µM (inactive)
same,GI50,UO-31,> 75 µM (inactive)
CC(=O)C1=NN(c2ccccc2)C2(S1)SC(c1ccccc1)(c1ccccc1)c1ccccc12 (stereo unspecified),GI50,786-0,34.5 µM (inactive)
same,GI50,A498,89.7 µM (inactive)
same,GI50,A549,36.7 µM (inactive)
same,GI50,ACHN,42.3 µM (inactive)
same,GI50,CCRF-CEM,49.3 µM (inactive)
same,GI50,COLO 205,> 100 µM (inactive)
same,GI50,DLD-1,61.4 µM (inactive)
same,GI50,DMS-114,32.5 µM (inactive)
same,GI50,DMS-273,17.6 µM (inactive)
same,GI50,EKVX,> 100 µM (inactive)
same,GI50,HCC 2998,> 100 µM (inactive)
same,GI50,HCT-116,24.4 µM (inactive)
same,GI50,HCT-15,> 100 µM
same,GI50,HL-60,19.9 µM (inactive)
same,GI50,HOP-18,> 100 µM (inactive)
same,GI50,HOP-62,34.6 µM (inactive)
same,GI50,HOP-92,10.4 µM (inactive)
same,GI50,HT-29,95.3 µM (inactive)
same,GI50,IGROV-1,33.1 µM (inactive)
same,GI50,K562,32.4 µM (inactive)
same,GI50,KM-20L2,> 100 µM (inactive)
same,GI50,KM12,74.5 µM (inactive)
same,GI50,LOX IMVI,61.5 µM (inactive)
same,GI50,LXFL 529,15.2 µM (inactive)
same,GI50,M14,44.8 µM (inactive)
same,GI50,M19-MEL,47.8 µM (inactive)
same,GI50,MOLT-4,27.8 µM (inactive)
same,GI50,Malme-3M,37.4 µM (inactive)
same,GI50,NCI-H226,16.1 µM (inactive)
same,GI50,NCI-H23,27.2 µM (inactive)
same,GI50,NCI-H460,32.3 µM (inactive)
same,GI50,NCI-H522,22.9 µM (inactive)
same,GI50,OVCAR-3,51.3 µM (inactive)
same,GI50,OVCAR-4,24.2 µM (inactive)
same,GI50,OVCAR-8,34.9 µM (inactive)
same,GI50,RPMI-8226,44.1 µM (inactive)
same,GI50,RXF 393,13.2 µM (inactive)
same,GI50,SF-268,40.1 µM (inactive)
same,GI50,SF-295,26.9 µM (inactive)
same,GI50,SF-539,60.8 µM (inactive)
same,GI50,SK-MEL-28,> 100 µM (inactive)
same,GI50,SK-MEL-2,27 µM (inactive)
same,GI50,SK-OV-3,30.8 µM (inactive)
same,GI50,SN12C,> 100 µM (inactive)
same,GI50,SNB-19,62.2 µM (inactive)
same,GI50,SNB-75,19.3 µM (inactive)
same,GI50,SNB-78,30.8 µM (inactive)
same,GI50,SR,20.4 µM (inactive)
same,GI50,SW-620,99.1 µM (inactive)
same,GI50,TK-10,63.7 µM (inactive)
same,GI50,U-251,44.7 µM (inactive)
same,GI50,UACC-257,34.4 µM (inactive)
same,GI50,UACC-62,17.9 µM (inactive)
same,GI50,UO-31,> 100 µM (inactive)
O=C1C(C2=[N+]([O-])c3ccccc3C2=O)=[N+]([O-])c2ccccc21,GI50,786-0,20.6 µM (inactive)
same,GI50,A498,25.4 µM (inactive)
same,GI50,A549,26.4 µM (inactive)
same,GI50,ACHN,24.8 µM (inactive)
same,GI50,CCRF-CEM,19.3 µM (inactive)
same,GI50,COLO 205,17.7 µM (inactive)
same,GI50,DLD-1,23.9 µM (inactive)
same,GI50,DMS-114,17.9 µM (inactive)
same,GI50,DMS-273,30.9 µM (inactive)
same,GI50,EKVX,16.6 µM (inactive)
same,GI50,HL-60,19.4 µM (inactive)
same,GI50,HOP-18,20.2 µM (inactive)
same,GI50,HT-29,32.8 µM (inactive)
same,GI50,IGROV-1,32.1 µM (inactive)
same,GI50,K562,19.7 µM (inactive)
same,GI50,KM12,> 10 µM (inactive)
same,GI50,LOX IMVI,15.6 µM (inactive)
same,GI50,LXFL 529,17 µM (inactive)
same,GI50,M14,16.6 µM (inactive)
same,GI50,M19-MEL,24.3 µM (inactive)
same,GI50,MOLT-4,15.3 µM (inactive)
same,GI50,NCI-H226,25.5 µM (inactive)
same,GI50,NCI-H23,23.9 µM (inactive)
same,GI50,NCI-H460,23.1 µM (inactive)
same,GI50,OVCAR-3,16.3 µM (inactive)
same,GI50,OVCAR-4,14.5 µM (inactive)
same,GI50,OVCAR-5,94.4 µM (inactive)
same,GI50,OVCAR-8,24.7 µM (inactive)
same,GI50,RPMI-8226,20.2 µM (inactive)
same,GI50,RXF 393,31.9 µM (inactive)
same,GI50,SF-268,28.2 µM (inactive)
same,GI50,SF-295,40.7 µM (inactive)
same,GI50,SF-539,20.5 µM (inactive)
same,GI50,SK-MEL-28,42.9 µM (inactive)
same,GI50,SK-MEL-5,17.8 µM (inactive)
same,GI50,SK-OV-3,53.2 µM (inactive)
same,GI50,SNB-19,46.7 µM (inactive)
same,GI50,SNB-75,35.1 µM (inactive)
same,GI50,SNB-78,38.3 µM (inactive)
same,GI50,SR,22.5 µM (inactive)
same,GI50,SW-620,21.8 µM (inactive)
same,GI50,TK-10,35.4 µM (inactive)
same,GI50,U-251,20.4 µM (inactive)
same,GI50,UACC-62,> 10 µM (inactive)
same,GI50,UO-31,43.1 µM (inactive)
